# Measured values as given in a melting point compilation (Tetko et al.).
# Non-standard residues stand in square brackets, D forms with d. Residues, ends and D or L forms follow the SMILES beside them. pGlu = O=C1CC[C@@H](C(=O)O)N1; azaGly = NNC(=O)O
row,Compound,melting point
1,N=C(Nc1ccc2[nH]cc(C3=CCN4CCCC4C3)c2c1)c1cccs1 (stereo unspecified),122 to 124 °C
2,CCOC(=O)c1cnc2c(c(C)nn2C)c1NCS(=O)(=O)c1ccc(Oc2ccc(Cl)cc2)cc1,52 to 55 °C
3,CCC(C)C1NC(=O)C(CC(C)C)NC(=O)C2CCCN2C(=O)C(C(C)C)NC(=O)C(Cc2ccc(O)cc2)NC(=O)C2CCCN2C(=O)C2CCCN2C(=O)C(C(C)CC)NC1=O (stereo unspecified) (cyclo(IIPPYVPL); configuration not given here),180 to 182 °C
4,COc1cc(OC)c(/C=C/C(c2ccc(OC)c(NC(=O)C(C)OC(C)=O)c2)S(=O)(=O)C(/C=C/c2c(OC)cc(OC)cc2OC)c2ccc(OC)c(NC(=O)C(C)OC(C)=O)c2)c(OC)c1 (stereo unspecified),179 to 180 °C
5,Cc1cc(CCC(=O)OCC(COC(=O)CCc2cc(C)c(O)c(C(C)(C)C)c2)(COC(=O)CCc2cc(C)c(O)c(C(C)(C)C)c2)COC(=O)CCc2cc(C)c(O)c(C(C)(C)C)c2)cc(C(C)(C)C)c1O,45 to 55 °C
6,C=CC(=O)NCNC(=O)C=C,185 °C
7,CCCCCCc1cc(S(C)(=O)=NS(=O)(=O)c2ccc(C)cc2)ccc1O (stereo unspecified),109 to 110 °C
8,O=C(NCC(O)CO)c1c(I)c(C(=O)NCC(O)CO)c(I)c(N2C(=O)COCC2CO)c1I (stereo unspecified),227 to 230 °C
9,CCC1(CC)c2cc(-c3ccc(N(c4ccccc4)c4ccc(-c5ccc6c(c5)C(CC)(CC)c5cc(-c7nc8ccccc8s7)ccc5-6)cc4)cc3)ccc2-c2ccc(-c3nc4ccccc4s3)cc21,257 to 262 °C
10,CCCCCCCCCCCCCCCCCCN(CCCCCCCCCCCCCCCCCC)C(=O)c1cc(NS(=O)(=O)c2cnc(NN)c(Cl)c2)c2ccccc2c1O,75 to 77 °C
11,NC(=NC(=O)OCc1ccc([N+](=O)[O-])cc1)N(CCSSCCN(C(=O)OCc1ccc([N+](=O)[O-])cc1)C(N)=NC(=O)OCc1ccc([N+](=O)[O-])cc1)C(=O)OCc1ccc([N+](=O)[O-])cc1,165 °C
12,CC(=O)OCC(CNC(=O)c1c(I)c(C(=O)NCC(COC(C)=O)OC(C)=O)c(I)c(N2C(=O)COCC2COC(C)=O)c1I)OC(C)=O (stereo unspecified),210 to 212 °C
13,CC1(C)CC(N(c2nc(N(C3CC(C)(C)NC(C)(C)C3)C3CC(C)(C)NC(C)(C)C3)nc(N(C3CC(C)(C)NC(C)(C)C3)C3CC(C)(C)NC(C)(C)C3)n2)C2CC(C)(C)NC(C)(C)C2)CC(C)(C)N1,325 to 330 °C
14,CC(C)(C)CC(C)(C)c1cc(-n2nc3ccc(-c4ccc(-c5ccc6nn(-c7cc(C(C)(C)CC(C)(C)C)cc(C(C)(C)c8ccccc8)c7O)nc6c5)cc4)cc3n2)c(O)c(C(C)(C)c2ccccc2)c1,247 to 249 °C
15,CCCCCCCCCCCCCCCCCCOc1cc(OCCCCCc2cccc(OCc3ccccc3)c2OCc2ccccc2)cc(N(CC(=O)O)CC(=O)O)c1,79 to 81 °C
16,O=[N+]([O-])c1ccc2cn[nH]c(=S)c2c1,233 to 234 °C
17,CCCCCCCCCCCCCCCCCCN(CCCCCCCCCCCCCCCCCC)C(=O)c1cc(NS(=O)(=O)c2cnc(Cl)c(Cl)c2)c2ccccc2c1O,88 to 89 °C
18,COc1ccc(C2Sc3ccccc3N(CCN(C)C)C(=O)C2OC(=O)C=CC(=O)OC2C(=O)N(CCN(C)C)c3ccccc3SC2c2ccc(OC)cc2)cc1 (stereo unspecified),112 to 114 °C
19,CN=S(=O)(c1nc(-c2ccc(F)cc2)cs1)C(C)c1ccc(C(F)(F)F)nc1 (stereo unspecified),89 to 94 °C
20,CCC1(O)CC(OC2CC(N(C)C)C(OC3CC4OC5CC(=O)C(C)OC5OC4C(C)O3)C(C)O2)c2c(cc3c(c2O)C(=O)c2c(O)cccc2C3=O)C1C(=O)OC (stereo unspecified),161 °C
21,O=C(Nc1cc(Cl)cc(Cl)c1)c1c(O)ccc2ccccc12,246 to 248 °C
22,BrCCCCCCCCCCCBr,-11 °C
23,COC(=O)C(CCN1C(=O)c2ccccc2C1=O)Oc1c(Br)cc(-c2c3ccccc3c(Br)c3sc4ccccc4c23)cc1Br (stereo unspecified),221 to 222 °C
24,CCCCCCOCC1CN(c2cc3c(cc2F)c(=O)c(C(=O)O)cn3CC)CCN1 (stereo unspecified),121 to 124 °C

# Second part, the compound after the results:
row,melting point,Compound
1,301 to 306 °C,CSc1ccc2c3c(cccc13)C(=O)N(O)C2=O
2,134 to 136 °C,O=C(O)c1ccc([Si](CCC(F)(F)C(F)(F)C(F)(F)C(F)(F)C(F)(F)C(F)(F)C(F)(F)C(F)(F)C(F)(F)C(F)(F)F)(CCC(F)(F)C(F)(F)C(F)(F)C(F)(F)C(F)(F)C(F)(F)C(F)(F)C(F)(F)C(F)(F)C(F)(F)F)CCC(F)(F)C(F)(F)C(F)(F)C(F)(F)C(F)(F)C(F)(F)C(F)(F)C(F)(F)C(F)(F)C(F)(F)F)cc1
3,236 to 239 °C,NCC1Cc2cc(F)cc(-c3ccoc3)c2O1 (stereo unspecified)
4,186 to 187 °C,CCCCN(CCCC)c1ccc(C=Cc2ccc(C=CC3=C(C#N)C(=C(C#N)C#N)OC3(C)C(F)(F)F)s2)c(O[Si](c2ccccc2)(c2ccccc2)C(C)(C)C)c1 (stereo unspecified)
5,179 to 180 °C,CC(C)C[C@H](NC(=O)[C@@H](Cc1ccccc1)NC(=O)[C@H](Cc1ccc(O)cc1)NC(=O)[C@H](CO)NC(=O)[C@H](Cc1c[nH]c2ccccc12)NC(=O)[C@@H](Cc1ccccc1)NC(=O)[C@@H]1CCC(=O)N1)C(=O)N[C@@H](CCCNC(=N)N)C(=O)N1CCC[C@H]1C(=O)NNC(N)=O ([pGlu][dF]WSY[dF]LRP[azaGly]-NH2)
6,114 to 115 °C,CC(=O)Nc1cc(COC2OC(COC(=O)c3ccc(Cl)cc3)C(OC3OC4COC(c5ccccc5)OC4C(OC(C)=O)C3OC(C)=O)C(OC(C)=O)C2OC(C)=O)ccc1Cl (stereo unspecified)
7,220 to 222 °C,CC(=O)NC1C(OCc2ccccc2)OC(COCc2ccccc2)C(OC2OC(COCc3ccccc3)C(OCc3ccccc3)C(OCc3ccccc3)C2NC(C)=O)C1O (stereo unspecified)
8,115 to 119 °C,CC(=O)OCC1OC(NC(=O)C2=CC=C(Cl)C(N)([N+](=O)[O-])C2)C(OC(C)=O)C(OC(C)=O)C1OC1OC(COC(C)=O)C(OC(C)=O)C(OC(C)=O)C1OC(C)=O (stereo unspecified)
9,137 to 138 °C,C[Si](C)(C)CCS(=O)(=O)N=S(=O)(c1ccc(N)cc1)C1CC1 (racemic)
10,52 °C,Cc1cc(C(C)(C)C)c(O)c(C)c1CCCCCCCCCCCCCCCCCCCOCCCCCCCCCCCCCCCCCCCc1c(C)cc(C(C)(C)C)c(O)c1C
11,82 to 84 °C,CCCCCCCCCCCCCCCC(=O)OCC(CSCC(NC(=O)OCc1cccc2c1Cc1ccccc1-2)C(=O)O)OC(=O)CCCCCCCCCCCCCCC (mixture of isomers)
12,217 to 219 °C,CC(NC(=O)C(CC(C(=O)O)C(C)(C)C)NC(=O)C(CC(C(=O)O)C(C)(C)C)NC(=O)C(NC(=O)OCc1ccccc1)C(C)C)C(=O)NC(CC(C(=O)O)C(C)(C)C)C(=O)NC(CC(N)=O)C(=O)OC(C)(C)C (stereo unspecified)
13,66 to 68 °C,CCCCCCCCCCCCCCCCCCCCCCCC[C@@H](C(=O)O)[C@H](O)CCCCCCCCCCCCCCC[C@@H]1C[C@@H]1CCCCCCCCCCCCCCCCCCC(=O)[C@@H](C)CCCCCCCCCCCCCCCCCC
14,234 to 236 °C,O=C(NCC(O)CO)c1c(I)c(C(=O)NCC(O)CO)c(I)c(N(CCCN(C(=O)CO)c2c(I)c(C(=O)NCC(O)CO)c(I)c(C(=O)NCC(O)CO)c2I)C(=O)CO)c1I (stereo unspecified)
15,251 to 253 °C,Cc1ccc(-c2c(-c3ccc(S(N)(=O)=O)cc3)[nH]c3ccccc23)cc1C
16,190 to 191 °C,CC(=O)Oc1c(C)cc(Oc2ccc3nc(COc4ccc(CC5SC(=O)N(C(c6ccccc6)(c6ccccc6)c6ccccc6)C5=O)cc4)n(C)c3n2)c(C)c1C (stereo unspecified)

row,melting point,Compound
1,118 to 121 °C,COc1cc(OC)c(/C=C/C(c2ccc(OC)c(NC(=O)CC(=O)O)c2)S(=O)(=O)C(/C=C/c2c(OC)cc(OC)cc2OC)c2ccc(OC)c(NC(=O)CC(=O)O)c2)c(OC)c1 (stereo unspecified)
2,-40 °C,CC(O)CN(C)C (stereo unspecified)
3,89 to 90 °C,CCCCCCCCCCCCCCCc1cccc(Oc2ccccc2SSc2ccccc2Oc2cccc(CCCCCCCCCCCCCCC)c2)c1
4,85 to 87 °C,COC(=O)CNC(=O)[C@H](NC(=O)[C@@H](CSC(c1ccccc1)(c1ccccc1)c1ccccc1)NC(=O)[C@@H](CCCCNC(=O)OC(C)(C)C)NC(=O)C[C@H](O)C=CCCSC(c1ccccc1)(c1ccccc1)c1ccccc1)C(C)C
5,206 to 208 °C,C=Cc1cccc2c(=O)c(C(=O)CCC)c[nH]c12
6,118 to 120 °C,C=CCOC(=O)NC(=O)C(c1ccccc1)c1ccccc1
7,94 to 96 °C,Brc1ccc2c(c1)C(CCCCCCCCCCn1c3ccccc3c3ccccc31)(CCCCCCCCCCn1c3ccccc3c3ccccc31)c1cc(Br)ccc1-2
8,171 to 173 °C,[C-]#[N+]C1(C)CN(C(=O)Nc2ccc(C(F)(F)F)cc2)N=C1c1ccc(Cl)cc1 (stereo unspecified)
9,92 to 93 °C,CCC(C=CC(C)C1CCC2C3CC=C4CC(OC(=O)N(CC(COC(c5ccccc5)(c5ccccc5)c5ccccc5)C(=O)NC)C(C)C)CCC4(C)C3CCC12C)C(C)C (stereo unspecified)
10,76 °C,CCCCCCCCCCS(=O)(=O)c1c(S(=O)(=O)CCCCCCCCCC)c(S(=O)(=O)CCCCCCCCCC)c(S(=O)(=O)CCCCCCCCCC)c(S(=O)(=O)CCCCCCCCCC)c1S(=O)(=O)CCCCCCCCCC
11,118 °C,CN(CC(O)C(CC1CCCCC1)NC(=O)C(Cc1c[nH]cn1)NC(=O)C(CC(=O)C(C)(C)C)Cc1ccccc1)C(Cc1c[nH]cn1)NC(=O)C(CC(=O)C(C)(C)C)Cc1ccccc1 (stereo unspecified)
12,160 to 161 °C,NC(=O)OCCCN1CCN2c3ccccc3Cc3ccccc3C2C1 (stereo unspecified)
13,135 to 137 °C,CCCCNC1=CCC(C)n2c1ncc(C(=O)O)c2=O (stereo unspecified)
14,174 to 176 °C,CCC1(CC)c2cc(-c3nc4ccccc4s3)ccc2-c2ccc(N(Cc3ccccc3)c3ccc4c(c3)C(CC)(CC)c3cc(-c5nc6ccccc6s5)ccc3-4)cc21
15,191 to 193 °C,CC(C)[C@@H](NC(=O)[C@@H](CSC(c1ccccc1)(c1ccccc1)c1ccccc1)NC(=O)[C@@H](C)NC(=O)C[C@H](O)/C=C/CCSC(c1ccccc1)(c1ccccc1)c1ccccc1)C(=O)NCC(=O)O
16,83 to 88 °C,CCNC(=O)[C@@H](C)NC(=O)[C@H](Cc1c[nH]cn1)NC(=O)[C@H](COCc1ccccc1)NC(=O)[C@H](Cc1ccc(OCc2ccccc2)cc1)NC(=O)[C@H](Cc1c[nH]cn1)NCc1ccccc1
